Laboratory results from US8802597B2, “Herbicidal pyrimidines” (E I du Pont de Nemours and Company, priority 2003, dated 2014).
Read-outs that look alike come from different tables or passages of the source.

Columns and labels:
Experiment in all cases: Test C pre/postemergence
Assay type in all cases: in vivo
[1] = system: Surinam grass (Brachiaria decumbens); settings: Urochloa decumbens; for pest or weed control at 16 g/ha: 16 g ai/ha; for pest or weed control at 31 g/ha: 31 g ai/ha; for pest or weed control at 62 g/ha: 62 g ai/ha
Summary of the method: (§1)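 Pre: seeds planted, sprayed same day. Post: 1- to 4-leaf plants (2–18 cm). Formulation: non-phytotoxic solvent + surfactant. Greenhouse 12–14 d; visual % control vs untreated, 0–100.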

[2] = system: bermudagrass (Cynodon dactylon); settings: Cynodon dactylon; for pest or weed control at 16 g/ha: 16 g ai/ha; for pest or weed control at 31 g/ha: 31 g ai/ha; for pest or weed control at 62 g/ha: 62 g ai/ha; for pest or weed control at 125 g/ha: 125 g ai/ha
Summary of the method: as §1

[3] = system: common ragweed (Ambrosia elatior); settings: Ambrosia artemisiifolia; for pest or weed control at 16 g/ha: 16 g ai/ha; for pest or weed control at 31 g/ha: 31 g ai/ha; for pest or weed control at 62 g/ha: 62 g ai/ha
Summary of the method: as §1

[4] = system: eastern black nightshade (Solanum ptycanthum); settings: Solanum, pre-emergence, Preemergence, scale 0 to 100, 0 no effect, 100 complete control, read-out: Plant response rating, Nightshade
Summary of the method: as §1

[5] = system: giant foxtail (Setaria faberii); settings: Setaria faberi; for pest or weed control at 125 g/ha: 125 g ai/ha; for pest or weed control at 16 g/ha: 16 g ai/ha; for pest or weed control at 31 g/ha: 31 g ai/ha; for pest or weed control at 62 g/ha: 62 g ai/ha
Summary of the method: as §1

[6] = system: goosegrass (Eleusine indica); settings: Eleusine indica; for pest or weed control at 16 g/ha: 16 g ai/ha; for pest or weed control at 31 g/ha: 31 g ai/ha; for pest or weed control at 62 g/ha: 62 g ai/ha; for pest or weed control at 125 g/ha: 125 g ai/ha
Summary of the method: as §1

[7] = system: lambsquarters (Chenopodium album); settings: Chenopodium album; for pest or weed control at 16 g/ha: 16 g ai/ha; for pest or weed control at 31 g/ha: 31 g ai/ha; for pest or weed control at 62 g/ha: 62 g ai/ha; for pest or weed control at 125 g/ha: 125 g ai/ha
Summary of the method: as §1

[8] = system: morningglory (Ipomoea coccinea); settings: Ipomoea; for pest or weed control at 16 g/ha: 16 g ai/ha; for pest or weed control at 31 g/ha: 31 g ai/ha; for pest or weed control at 62 g/ha: 62 g ai/ha; for pest or weed control at 125 g/ha: 125 g ai/ha
Summary of the method: as §1

[9] = system: soybean (Glycine max); settings: Glycine max; for plant injury at 16 g/ha: 16 g ai/ha; for plant injury at 31 g/ha: 31 g ai/ha; for plant injury at 62 g/ha: 62 g ai/ha
Summary of the method: as §1

[10] = system: velvetleaf (Abutilon theophrasti); settings: Abutilon theophrasti; for pest or weed control at 16 g/ha: 16 g ai/ha; for pest or weed control at 31 g/ha: 31 g ai/ha; for pest or weed control at 62 g/ha: 62 g ai/ha
Summary of the method: as §1

[11] = system: woolly cupgrass (Eriochloa villosa); settings: Eriochloa villosa; for pest or weed control at 16 g/ha: 16 g ai/ha; for pest or weed control at 31 g/ha: 31 g ai/ha; for pest or weed control at 62 g/ha: 62 g ai/ha; for pest or weed control at 125 g/ha: 125 g ai/ha
Summary of the method: as §1

[12] = system: yellow nutsedge (Cyperus esculentus); settings: Cyperus; for pest or weed control at 16 g/ha: 16 g ai/ha; for pest or weed control at 31 g/ha: 31 g ai/ha; for pest or weed control at 62 g/ha: 62 g ai/ha
Summary of the method: as §1

[13] = post-emergence, Postemergence, read-out: Plant response rating (scale of 0 to 100), Surinam Grass
[14] = pre-emergence, Preemergence, scale 0 to 100, 0 no effect, 100 complete control, read-out: Plant response rating, Surinam Grass
[15] = post-emergence, Postemergence, read-out: Plant response rating (scale of 0 to 100), Bermudagrass
[16] = post-emergence, Postemergence, scale 0 to 100 (0 no effect, 100 complete control), read-out: Bermudagrass plant response rating
[17] = pre-emergence, Preemergence, scale 0 to 100, 0 no effect, 100 complete control, read-out: Plant response rating, Bermudagrass
[18] = post-emergence, Postemergence, read-out: Plant response rating (scale of 0 to 100), Ragweed
[19] = pre-emergence, Preemergence, scale 0 to 100, 0 no effect, 100 complete control, read-out: Plant response rating, Ragweed
[20] = post-emergence, Postemergence, read-out: Plant response rating (scale of 0 to 100), Foxtail, Giant
[21] = pre-emergence, Preemergence, scale 0 to 100, 0 no effect, 100 complete control, read-out: Plant response rating, Foxtail, Giant
[22] = post-emergence, Postemergence, read-out: Plant response rating (scale of 0 to 100), Goosegrass
[23] = pre-emergence, Preemergence, scale 0 to 100, 0 no effect, 100 complete control, read-out: Plant response rating, Goosegrass
[24] = post-emergence, Postemergence, read-out: Plant response rating (scale of 0 to 100), Lambsquarters
[25] = pre-emergence, Preemergence, scale 0 to 100, 0 no effect, 100 complete control, read-out: Plant response rating, Lambsquarters
[26] = post-emergence, Postemergence, read-out: Plant response rating (scale of 0 to 100), Morningglory
[27] = pre-emergence, Preemergence, scale 0 to 100, 0 no effect, 100 complete control, read-out: Plant response rating, Morningglory
[28] = post-emergence, Postemergence, read-out: Plant response rating (scale of 0 to 100), Soybean
[29] = pre-emergence, Preemergence, scale 0 to 100, 0 no effect, 100 complete control, read-out: Plant response rating, Soybean
[30] = post-emergence, Postemergence, read-out: Plant response rating (scale of 0 to 100), Velvetleaf
[31] = pre-emergence, Preemergence, scale 0 to 100, 0 no effect, 100 complete control, read-out: Plant response rating, Velvetleaf
[32] = post-emergence, Postemergence, read-out: Plant response rating (scale of 0 to 100), Cupgrass, Woolly
[33] = pre-emergence, Preemergence, scale 0 to 100, 0 no effect, 100 complete control, read-out: Plant response rating, Cupgrass, Woolly
[34] = post-emergence, Postemergence, read-out: Plant response rating (scale of 0 to 100), Nutsedge, Yellow
[35] = pre-emergence, Preemergence, scale 0 to 100, 0 no effect, 100 complete control, read-out: Plant response rating, Nutsedge, Yellow

Nc1nc(-c2ccc(Cl)cc2)nc(C(=O)O)c1Cl [Compound 65, 6-amino-5-chloro-2-(4-chlorophenyl)-4-pyrimidinecarboxylic acid]
pest or weed control at 125 g/ha ([1]; post-emergence, Postemergence, 125 g ai/ha, scale 0 to 100 (0 no effect, 100 complete control), read-out: Surinam Grass plant response rating): 80% | pest or weed control at 16 g/ha [1, 13]: 60% | pest or weed control at 31 g/ha [1, 13]: 80% | pest or weed control at 62 g/ha [1, 13]: 80% | pest or weed control at 16 g/ha [1, 14]: 0% | pest or weed control at 31 g/ha [1, 14]: 40% | pest or weed control at 62 g/ha [1, 14]: 80% | pest or weed control at 16 g/ha [2, 15]: 60% | pest or weed control at 31 g/ha [2, 15]: 60% | pest or weed control at 62 g/ha [2, 16]: 70% | pest or weed control at 125 g/ha [2, 16]: 70% | pest or weed control at 16 g/ha [2, 17]: 0% | pest or weed control at 31 g/ha [2, 17]: 50% | pest or weed control at 62 g/ha [2, 17]: 70% | pest or weed control at 125 g/ha ([2]; pre-emergence, Preemergence, scale 0 to 100, read-out: Plant response rating, Bermudagrass): 80% | pest or weed control at 16 g/ha [3, 18]: 80% | pest or weed control at 31 g/ha [3, 18]: 90% | pest or weed control at 62 g/ha [3, 18]: 95% | pest or weed control at 125 g/ha ([3]; post-emergence, Postemergence, 125 g ai/ha, scale 0 to 100 (0 no effect, 100 complete control), read-out: Ragweed plant response rating): 95% | pest or weed control at 16 g/ha [3, 19]: 85% | pest or weed control at 31 g/ha [3, 19]: 85% | pest or weed control at 62 g/ha [3, 19]: 90% | pest or weed control at 16 g/ha ([4]; 16 g ai/ha): 0% | pest or weed control at 31 g/ha ([4]; 31 g ai/ha): 0% | pest or weed control at 125 g/ha ([5]; post-emergence, Postemergence, scale 0 to 100 (0 no effect, 100 complete control), read-out: Foxtail, Giant plant response rating): 70% | pest or weed control at 16 g/ha [5, 20]: 50% | pest or weed control at 31 g/ha [5, 20]: 60% | pest or weed control at 62 g/ha [5, 20]: 70% | pest or weed control at 16 g/ha [5, 21]: 0% | pest or weed control at 31 g/ha [5, 21]: 10% | pest or weed control at 62 g/ha [5, 21]: 50% | pest or weed control at 125 g/ha ([5]; pre-emergence, Preemergence, scale 0 to 100, read-out: Plant response rating, Foxtail, Giant): 60% | pest or weed control at 16 g/ha [6, 22]: 50% | pest or weed control at 31 g/ha [6, 22]: 50% | pest or weed control at 62 g/ha [6, 22]: 70% | pest or weed control at 125 g/ha ([6]; post-emergence, Postemergence, scale 0 to 100 (0 no effect, 100 complete control), read-out: Goosegrass plant response rating): 70% | pest or weed control at 16 g/ha [6, 23]: 0% | pest or weed control at 31 g/ha [6, 23]: 0% | pest or weed control at 62 g/ha [6, 23]: 0% | pest or weed control at 125 g/ha ([6]; pre-emergence, Preemergence, scale 0 to 100, read-out: Plant response rating, Goosegrass): 50% | pest or weed control at 16 g/ha [7, 24]: 85% | pest or weed control at 31 g/ha [7, 24]: 90% | pest or weed control at 62 g/ha [7, 24]: 90% | pest or weed control at 125 g/ha ([7]; post-emergence, Postemergence, scale 0 to 100 (0 no effect, 100 complete control), read-out: Lambsquarters plant response rating): 95% | pest or weed control at 16 g/ha [7, 25]: 0% | pest or weed control at 31 g/ha [7, 25]: 50% | pest or weed control at 62 g/ha [7, 25]: 80% | pest or weed control at 125 g/ha ([7]; pre-emergence, Preemergence, scale 0 to 100, read-out: Plant response rating, Lambsquarters): 100% | pest or weed control at 16 g/ha [8, 26]: 90% | pest or weed control at 31 g/ha [8, 26]: 90% | pest or weed control at 62 g/ha [8, 26]: 90% | pest or weed control at 125 g/ha ([8]; post-emergence, Postemergence, scale 0 to 100 (0 no effect, 100 complete control), read-out: Morningglory plant response rating): 95% | pest or weed control at 16 g/ha [8, 27]: 0% | pest or weed control at 31 g/ha [8, 27]: 0% | pest or weed control at 62 g/ha [8, 27]: 20% | pest or weed control at 125 g/ha ([8]; pre-emergence, Preemergence, scale 0 to 100, read-out: Plant response rating, Morningglory): 100% | plant injury at 16 g/ha [9, 28]: 100% | plant injury at 31 g/ha [9, 28]: 100% | plant injury at 62 g/ha [9, 28]: 100% | plant injury at 125 g/ha ([9]; post-emergence, Postemergence, 125 g ai/ha, scale 0 to 100 (0 no effect, 100 complete control), read-out: Soybean plant response rating): 100% | plant injury at 16 g/ha [9, 29]: 85% | plant injury at 31 g/ha [9, 29]: 95% | plant injury at 62 g/ha [9, 29]: 95% | pest or weed control at 16 g/ha [10, 30]: 65% | pest or weed control at 31 g/ha [10, 30]: 80% | pest or weed control at 62 g/ha [10, 30]: 80% | pest or weed control at 125 g/ha ([10]; post-emergence, Postemergence, 125 g ai/ha, scale 0 to 100 (0 no effect, 100 complete control), read-out: Velvetleaf plant response rating): 90% | pest or weed control at 16 g/ha [10, 31]: 0% | pest or weed control at 31 g/ha [10, 31]: 40% | pest or weed control at 62 g/ha [10, 31]: 80% | pest or weed control at 16 g/ha [11, 32]: 60% | pest or weed control at 31 g/ha [11, 32]: 80% | pest or weed control at 62 g/ha [11, 32]: 85% | pest or weed control at 125 g/ha ([11]; post-emergence, Postemergence, scale 0 to 100 (0 no effect, 100 complete control), read-out: Cupgrass, Woolly plant response rating): 85% | pest or weed control at 16 g/ha [11, 33]: 0% | pest or weed control at 31 g/ha [11, 33]: 0% | pest or weed control at 62 g/ha [11, 33]: 5% | pest or weed control at 125 g/ha ([11]; pre-emergence, Preemergence, scale 0 to 100, read-out: Plant response rating, Cupgrass, Woolly): 70% | pest or weed control at 16 g/ha [12, 34]: 0% | pest or weed control at 31 g/ha [12, 34]: 0% | pest or weed control at 62 g/ha [12, 34]: 20% | pest or weed control at 125 g/ha ([12]; post-emergence, Postemergence, 125 g ai/ha, scale 0 to 100 (0 no effect, 100 complete control), read-out: Nutsedge, Yellow plant response rating): 50% | pest or weed control at 16 g/ha [12, 35]: 0% | pest or weed control at 31 g/ha [12, 35]: 0% | pest or weed control at 62 g/ha [12, 35]: 30%
